The nature of the series: In vivo pharmacokinetics in rats after single administration. The settings on record: male, Sprague-Dawley, rat, plasma, 10 mg/kg, 10 mpk oral administration. As for the experimental part:
Male SD rats were used as test animals, and the concentration of the compound in blood was determined after single administration to evaluate the pharmacokinetic behavior.
Sprague Dawley rats (male, 200-300 g, 7-9 weeks, Shanghai Charles River Laboratory Animal Co., Ltd.)
The pharmacokinetic characteristics of the test compound in rodents after intravenous injection and oral administration were tested by standard protocols, in the experiment, the test compound was prepared into a clear solution or homogeneous suspension, and administered to the rats by single intravenous injection and oral administration. In the intravenous injection group, the menstruum was a certain proportion of ethanol and physiological saline solution or a certain proportion of dimethyl sulfoxide in HP-β cyclodextrin solution (pH was adjusted to 3-4), the mixture was vortexed and stirred to prepare 2 mg/mL or 1 mg/mL clear solution, then filtered with microporous membrane for later use; in the oral administration group, the menstruum was a certain proportion of sodium carboxymethyl cellulose solution or a certain proportion of dimethyl sulfoxide in HP-0 cyclodextrin solution (pH was adjusted to about 4), after the test compound was mixed with the solvent, the mixture was vortexed and stirred to prepare 2 mg/mL or 1 mg/mL homogeneous suspension or clear solution for later use. After 2 mg/kg intravenous administration or 10 mg/kg oral administration to rats, a certain amount of whole blood samples were collected, centrifuged at 3000 g for 15 minutes, the supernatant was separated to give the plasma samples; then an acetonitrile solution containing internal standard with a volume 3 times that of the plasma sample was added to precipitate proteins, and then centrifuged; the supernatant was separated, and water with a volume twice that of the supernatant was added to the supernatant, which was then centrifuged again; the supernatant was collected for analysis; LC-MS/MS analysis method was used to quantitatively analyze the blood drug concentration, and Phoenix WinNonlin software (Pharsight, USA) was used to calculate the pharmacokinetic parameters, such as peak concentration, time to peak concentration, clearance rate, half-life, area under the concentration-time curve, bioavailability, etc.
Among them, C0 is the initial concentration, T1/2 is the elimination half-life, Vdss is the steady-state apparent volume of distribution, Cl is the total clearance rate, AUC0-inf is the area under the plasma drug concentration-time curve from time 0 to infinity, Cmax is the peak concentration, Tmax is the time to peak concentration.

By AUC(0-inf) is commonly meant the area under the concentration-time curve extrapolated to infinity. Read a low AUC(0-inf) as less exposure. One may read the Cmax as the highest concentration seen after dosing. What is called Tmax is the time from dosing to the highest level. In general, bioavailability refers to the share of a dose that reaches the circulation, judged against a reference dose that is usually intravenous. High values mean good availability, low ones poor availability. What is called half-life is the time in which the quantity being followed falls by half. Lower therefore signals fast loss. Take `COCCN1C[C@@H](n2ccc(F)c2)[C@H](NC(=O)Nc2c(C)c(-c3cnc(C4(F)COC4)nc3)nn2-c2ccccc2)C1` [Compound 7]: the area under the curve AUC(0-inf) is 3.24 µM·h, the Cmax amounted to 1790 nM, the Tmax was 0.63 h and the bioavailability came out at 24.8%. The half-life was 1.6 h.

Values taken from patent US11932652B2, “Pyrrolidinyl urea derivatives and application thereof in TrkA-related diseases” (ZHANGZHOU PIEN TZE HUANG PHARMACEUTICAL CO., LTD., priority 2018, dated 2024).
